Assay results as given in patent publication US20210349108A1, “IMMUNOASSAY FOR MEASURING C-PEPTIDE” (Roche Diabetes Care GmbH, priority 2018, published 2021).
One block for each substance: values may come before it.

Key:
[1] = tested on: anti-C-peptide antibody PEP001; test: QCM displacement immunoassay, ligand immobilized on Au-surface, antibody PEP001; type: binding; settings: for QCM frequency change on addition of sample containing WT-C-peptide (displacement of the ligand, release of antibody-C-peptide-complex): streptavidin/ligand/PEP001 assembly on Au-surface
Text: An Au-substrate is covered with a self-assembled monolayer (SAM). This self-assembled monolayer protects the surface from unspecific adsorption of peptides or proteins. Part of the SAM molecules is coupled with biotin, which is exposed on the surface. To this surface the biotin binding protein streptavidin is applied and bound by the biotin moieties. Since streptavidin has a plurality of binding sides for biotin, a ligand labeled with biotin can be bound to the streptavidin. Finally, anti-C-peptide antibody PEP001 is added, which binds to the ligand forming an immobilized antibody-ligand-complex, which is schematically depicted in FIG. 2. The stepwise build-up of an immobilized antibody-ligand-complex on the Au-surface can be monitored using a Quartz Crystal Microbalance (QCM). […] Referring to FIG. 3, attachment of streptavidin and Mut6-C-peptide results in a frequency shift of about −20 Hz. The binding of antibody PEP001 to the ligand Mut6-C-peptide results in a frequency shift of about >−50 Hz.
Addition of a sample containing C-peptide results in displacement of the ligand by wild type C-peptide and release of a C-peptide-antibody-complex as schematically shown in FIG. 2.
A quantitative determination of the amount of C-peptide within a sample can be achieved by calibrating the assay using solutions having known C-peptide concentrations. The amount of frequency shift observed for a sample indicates the quantitative amount of C-peptide being present within that sample.
An immunoassay as described in Example 1 was provided except that Mut3-C-peptide, Mut2-C-peptide or Mut5-C-peptide were used as ligand.
As described in Example 1, a SAM/biotin/streptavidin/biotin-ligand/antibody-complex is immobilized on an Au-surface. In this Example the ligand was C-peptide mutant B10-25_Mut3, the antibody was PEP001.
Immobilization of a ligand to a surface can also be performed using a linker (instead of a self-assembling monolayer). A suitable linker is for example a cysteine linker. In this configuration immobilization of an antibody via an antibody-ligand-complex to the surface can be detected by measuring impedance. A ligand having the sequence N-[…]-C(SEQ ID NO:7) was directly immobilized on an Au-surface. Additionally, 6-ferrocenyl-1-hexanethiol was bound to the Au surface for enhanced impedance measurement. Unspecific protein binding to the surface was avoided by incubation with a polyethylene glycol (ML-PEG) and bovine serum albumin (BSA).

[2] = tested on: anti-C-peptide antibody CPT-3-F11; test: QCM displacement immunoassay, ligand immobilized on Au-surface, antibody CPT-3-F11; type: binding

- effect of addition of WT-C-peptide on bound antibody ([1]; ligand directly immobilized on Au-surface via cysteine linker, QCM): release of the bound antibody
Substance: N-CGSGSGSGS-VELGGGPGAGSLAPLA-C (CGSGSGSGSVELGGGPGAGSLAPLA; variant C-peptide Mut6-Cys) [SEQ ID NO:7, AA10-25; Q(22) to A and including a cysteine linker]
- QCM frequency change on addition of PEP001 antibody ([1]; ligand directly immobilized on Au-surface via cysteine linker): considerable negative shift of the frequency

- QCM frequency change on addition of sample containing WT-C-peptide (displacement of the ligand) ([2]; antibody CPT-3-F11): considerable frequency increase
- frequency shift on addition of anti-C-peptide antibody CPT-3-F11 ([2]; streptavidin/ligand assembly on Au-surface): ~−30 Hz
Substance: N-GQVECGGGPG-C (variant C-peptide Mut18) [Mut18-C-peptide, C-peptide variant AA8-17; L(12)to C]

- QCM frequency change on addition of sample containing WT-C-peptide (displacement of the ligand, release of antibody-C-peptide-complex) ([1]; QCM): considerable frequency increase
- QCM frequency change on adding WT-C-peptide (release of antibody-WT-C-peptide-complex) ([1]; continuous assay, 500 ng/ml WT-C-peptide, antibody PEP001): positive frequency shift
Substance: N-VELGGGPGAGSIQPLA-C (variant C-peptide Mut3) [Mut3-C-peptide, C-peptide variant AA10-25; L(21)to I]

- frequency shift on binding of antibody PEP001 to the ligand ([1]; QCM, biotin-labeled ligand on SAM/biotin/streptavidin Au-surface, negative shift = mass increase): > −50 Hz
- QCM frequency change on addition of sample containing WT-C-peptide (displacement of the ligand, release of antibody-C-peptide-complex) ([1]; QCM): observable positive frequency shift
Substance: N-VELGGGPGAGSLAPLA-C (variant C-peptide Mut6) [Mut6-C-peptide, C-peptide variant AA10-25; Q(22)to A]
